Results published in PubChem BioAssay AID623871 (Sanford-Burnham Center for Chemical Genomics, 2012).
The source made the active and inactive calls.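 Rule for the calls: active = IC50 at or below 10 µM; inactive = the rest.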

System: H9c2 cardiomyoblasts, 2-deoxyglucose injury, ATP luminescence, 2 h
Experiment: cardiomyoblast survival under 2-deoxyglucose stress – cell-based, H9c2, ATP luminescence, SAR follow-up (AID 623871)

| SMILES | IC50 |
| --- | --- |
| NC(=O)c1nsc(C(=O)N(Cc2ccccc2)C(C(=O)NCc2ccc(F)cc2)c2ccc(O)cc2)c1N (centres undefined) | > 79 µM (inactive) |
| COc1ccc2cc(C(=O)N3CCN(S(=O)(=O)c4cc(C)ccc4C)CC3)c(C)nc2c1 | > 79 µM (inactive) |
| COc1cc(-c2cc(C(=O)Nc3cccc(C(C)=O)c3)c3ccccc3n2)cc(OC)c1OC | 10.7 µM (inactive) |
| COc1ccc(NC(=O)CN(C)C(=O)c2cc(-c3cccs3)nn2-c2ccccc2)cc1 | 38.6 µM (inactive) |
| CCN(CC(=O)Nc1ccc(OC)cc1)C(=O)c1cc(-c2cccs2)nn1-c1ccccc1 | 6.24 µM |
| O=C(C(=O)N1CCCC1)c1c(-c2ccccc2)[nH]c2ccccc12 | > 79 µM (inactive) |
| COc1ccc2c(=O)c(C(=O)N3CCN(S(=O)(=O)c4c(C)cc(C)cc4C)CC3)c[nH]c2c1 | > 79 µM (inactive) |
| COc1cccc(NC(=O)CN(C)C(=O)c2cc(-c3cccs3)nn2-c2ccccc2)c1 | > 79 µM (inactive) |
| COc1ccc(-c2cc(C(=O)NCc3ccco3)c3ccccc3n2)cc1OC | 39.2 µM (inactive) |
| O=C(C(=O)N1CCCCC1)c1c(-c2ccccc2)[nH]c2ccccc12 | > 79 µM (inactive) |
| COc1ccc(N2C(=O)c3ccccc3N3C(=O)c4c(ccc(OC)c4OC)C23)cc1 (centres undefined) | 29.3 µM (inactive) |
| COCCn1c(SC(C(=O)Nc2cc(C)ccc2C)c2ccccc2)nc2ccccc2c1=O (centres undefined) | 4.01 µM (inactive) |
| CC(C)CCNC(=O)C(c1ccc(O)cc1)N(C(=O)c1snc(C(N)=O)c1N)c1ccccc1F (centres undefined) | > 79 µM (inactive) |
| COc1ccc(-c2cc(C(=O)N(C)C)c3ccccc3n2)cc1OC | > 79 µM (inactive) |
| Cc1ccc2cc(CN(C)S(=O)(=O)c3ccc(F)cc3)c(=O)[nH]c2c1 | > 79 µM (inactive) |
| O=C1c2ccccc2N2C(=O)c3ccccc3[C@H]2N1c1ccccc1 | 34.3 µM (inactive) |
| COc1ccc2c(c1OC)C(=O)N1c3ccccc3C(=O)N(c3ccc(F)cc3)C21 (centres undefined) | 39.4 µM (inactive) |
| COc1ccc(S(=O)(=O)N(Cc2cccnc2)Cc2cc3ccccc3[nH]c2=O)cc1 | 53.9 µM (inactive) |
| NC(=O)c1nsc(C(=O)N(c2cccc(F)c2)C(C(=O)NC2CCCC2)c2ccc(O)cc2)c1N (centres undefined) | > 79 µM (inactive) |
| O=c1[nH]c2ccccc2cc1CN(Cc1ccco1)S(=O)(=O)c1ccc(F)cc1 | > 79 µM (inactive) |
| COc1ccc(-c2cc(C(=O)N(C)Cc3ccc(OC)c(OC)c3OC)c3ccccc3n2)cc1OC | 7.31 µM |
| Cc1ccc2cc(CN(Cc3cccnc3)S(=O)(=O)c3ccc(F)cc3)c(=O)[nH]c2c1 | > 79 µM (inactive) |

| SMILES | IC50 |
| --- | --- |
| COc1ccc2c(c1OC)C(=O)N1c3ccccc3C(=O)N(c3ccccc3C)C21 (centres undefined) | 36.1 µM (inactive) |
| Cc1ccc(-c2[nH]c3ccccc3c2C(=O)C(=O)N(C)C)cc1 | > 79 µM (inactive) |
| Cc1ccc(C)c(S(=O)(=O)N2CCN(C(=O)c3cc4cc(C)ccc4nc3C)CC2)c1 | 46.2 µM (inactive) |
| COc1ccc(-n2cc(-c3ccccc3)c3c(N4CCCC4)ncnc32)cc1 | > 79 µM (inactive) |
| COCCNC(=O)C(c1ccc(O)cc1)N(C(=O)c1snc(C(N)=O)c1N)c1ccccc1F (centres undefined) | > 79 µM (inactive) |
| CCN(CC)S(=O)(=O)c1cc(C(=O)N2CCN(Cc3cccc4cccnc34)CC2)ccc1C | > 79 µM (inactive) |
| COc1ccc2cc(C(=O)N3CCN(S(=O)(=O)c4ccc(C)cc4C)CC3)c(C)nc2c1 | > 79 µM (inactive) |
| COc1ccc(-c2cc(C(=O)NCc3ccccc3)c3ccccc3n2)cc1OC | > 79 µM (inactive) |
| Cc1ccccc1N(C(=O)c1snc(C(N)=O)c1N)C(C(=O)NCc1ccc(F)cc1)c1ccc(O)cc1 (centres undefined) | > 79 µM (inactive) |
| COc1cccc(NC(=O)C(Sc2nc3ccccc3c(=O)n2CC(C)C)c2ccccc2)c1 (centres undefined) | 19.5 µM (inactive) |
| Cc1ccc(NC(=O)CN(C)C(=O)c2cc(-c3cccs3)nn2-c2ccccc2)cc1 | 27.2 µM (inactive) |
| Cc1ccc(S(=O)(=O)N2CCN(C(=O)c3cc(=O)[nH]c4ccccc34)CC2)cc1C | 33.4 µM (inactive) |
| CCCN(CC(=O)Nc1ccccc1OC)C(=O)c1cc(-c2cccs2)nn1-c1ccccc1 | > 79 µM (inactive) |
| COc1ccc(-n2cc(-c3ccccc3)c3c(NCc4ccccc4)ncnc32)cc1 | 13.6 µM (inactive) |
| COc1ccc2c(c1OC)C(=O)N1c3ccccc3C(=O)N(c3cccc(Br)c3)C21 (centres undefined) | 10.6 µM (inactive) |
| CCCn1c(SC(C(=O)Nc2cccc(OC)c2)c2ccccc2)nc2ccccc2c1=O (centres undefined) | > 79 µM (inactive) |
| CCN(CC)C(=O)C(=O)c1c(-c2ccccc2)[nH]c2ccccc12 | > 79 µM (inactive) |
| COc1ccccc1N1C(=O)c2ccccc2N2C(=O)c3c(ccc(OC)c3OC)C12 (centres undefined) | 42.5 µM (inactive) |
| COc1cccc(CN(C)C(=O)c2cc(-c3ccccc3)nc3ccc(C)cc23)c1OC | > 79 µM (inactive) |
| COc1ccc(-n2cc(-c3ccccc3)c3c(N4CCCCC4)ncnc32)cc1 | 10.6 µM (inactive) |
| Cc1ccc(S(=O)(=O)N(Cc2cccnc2)Cc2cc3ccccc3[nH]c2=O)cc1 | > 79 µM (inactive) |
| COc1cccc(CN(C)C(=O)c2cc(-c3ccc(OC)c(OC)c3)nc3ccccc23)c1 | 15.1 µM (inactive) |
